Laboratory results reported in article PMC4092373, “Cell-secreted Flavins Bound to Membrane Cytochromes Dictate Electron Transfer Reactions to Surfaces with Diverse Charge and pH” (Scientific Reports, 2014).

Key:
OmcA = biological target: T1, OmcA (Shewanella oneidensis, UniProt Q8EG33); experiment: whole-cell differential pulse voltammetry; format: cell-based; details: redox peak potential of bound riboflavin, no affinity constant; delta-mtrC cells, 2.0 μM RF, 10 mM lactate, 30 °C; shift lost in delta-omcA cells
T1 construct: native outer-membrane decaheme cytochrome in intact living cells (wild type and delta-mtrC strain on ITO electrode), not purified

MtrC = biological target: T2, MtrC (Shewanella oneidensis, UniProt Q8EG34); experiment: whole-cell differential pulse voltammetry; format: cell-based; details: rough estimate in living wild-type MR-1 monolayer biofilm; printed for FMN and OM c-Cyts collectively, assigned to MtrC by gene deletions; saturation assumed at 52 μM FMN; semiquinone form bound under
T2 construct: native outer-membrane decaheme cytochrome in intact living cells (monolayer biofilm on ITO electrode), not purified
T2 sequence (Q8EG34 entry or part of it): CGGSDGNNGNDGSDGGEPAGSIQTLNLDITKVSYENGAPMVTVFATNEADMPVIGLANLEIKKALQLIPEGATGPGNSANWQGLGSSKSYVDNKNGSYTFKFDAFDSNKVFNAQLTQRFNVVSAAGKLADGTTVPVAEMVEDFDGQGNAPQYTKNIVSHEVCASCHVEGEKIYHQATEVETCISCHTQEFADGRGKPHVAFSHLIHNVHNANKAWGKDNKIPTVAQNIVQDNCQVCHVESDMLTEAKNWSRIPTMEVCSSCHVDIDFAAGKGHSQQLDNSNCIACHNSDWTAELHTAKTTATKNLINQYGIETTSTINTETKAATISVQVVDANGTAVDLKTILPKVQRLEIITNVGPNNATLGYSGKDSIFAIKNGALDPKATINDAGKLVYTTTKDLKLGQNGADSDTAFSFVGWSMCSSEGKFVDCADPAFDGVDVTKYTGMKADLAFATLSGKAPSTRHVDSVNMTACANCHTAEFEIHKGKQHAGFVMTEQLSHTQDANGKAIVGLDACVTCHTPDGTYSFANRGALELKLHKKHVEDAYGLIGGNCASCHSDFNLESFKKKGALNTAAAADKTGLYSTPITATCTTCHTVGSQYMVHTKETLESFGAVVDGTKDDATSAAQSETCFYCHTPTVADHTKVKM

T1 sequence (Q8EG33 entry or part of it): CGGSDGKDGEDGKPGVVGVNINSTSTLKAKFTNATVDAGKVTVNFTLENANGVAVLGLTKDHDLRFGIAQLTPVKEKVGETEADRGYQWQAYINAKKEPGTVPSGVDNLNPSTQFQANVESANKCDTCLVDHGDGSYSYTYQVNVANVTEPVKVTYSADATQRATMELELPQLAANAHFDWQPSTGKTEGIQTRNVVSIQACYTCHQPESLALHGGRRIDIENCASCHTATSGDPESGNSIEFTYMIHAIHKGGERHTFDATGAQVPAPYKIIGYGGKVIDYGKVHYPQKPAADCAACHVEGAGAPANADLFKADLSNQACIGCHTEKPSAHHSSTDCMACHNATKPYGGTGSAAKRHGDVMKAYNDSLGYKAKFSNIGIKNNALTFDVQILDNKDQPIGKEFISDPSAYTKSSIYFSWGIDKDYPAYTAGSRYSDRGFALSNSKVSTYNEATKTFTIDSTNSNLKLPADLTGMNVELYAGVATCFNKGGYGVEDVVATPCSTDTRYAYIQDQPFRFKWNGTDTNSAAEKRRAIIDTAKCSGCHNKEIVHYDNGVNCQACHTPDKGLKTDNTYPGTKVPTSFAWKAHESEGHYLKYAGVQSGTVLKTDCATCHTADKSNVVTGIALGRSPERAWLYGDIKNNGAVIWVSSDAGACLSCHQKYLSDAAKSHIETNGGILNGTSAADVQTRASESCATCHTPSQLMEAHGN

SMILES | Ep (OmcA) [mV] | Kd (MtrC) [µM]
Cc1cc2nc3c(=O)[nH]c(=O)nc-3n(C[C@H](O)[C@H](O)[C@H](O)CO)c2cc1C [RF, riboflavin] | −102 | 
Cc1cc2nc3c(=O)[nH]c(=O)nc-3n(C[C@H](O)[C@H](O)[C@H](O)COP(=O)(O)O)c2cc1C [FMN, flavin mononucleotide] |  | ~10
